Earlier results as cited in publication PMC9762682, “Tocotrienols: Exciting Biological and Pharmacological Properties of Tocotrienols and Naturally Occurring Compounds, Part II” (Annals of clinical case reports, 2022).
Where two headings read alike, the source gives them in different places. Marks after values point to notes of the source that are not given here.

What was measured:
[1] = parameters: method as in ref 14 = [14]; PMID 27493840; doi:10.4172/2155-9880.1000434; 14. Qureshi AA , Khan DA , Saleem S , Silswal N , Trias AM , Tan B , Pharmacokinetics and bioavailability of Annatto δ-tocotrienol in healthy fed subjects . J Clin Exp Cardiol . 2015; 6 : 11 . 10.417; settings: for time of appearance in the plasma: after δ-tocotrienol administration to well-fed subjects; for Elimination of Half-life time (t1/2) / Elimination rate constant (ke) / Plasma Peak Concentration (Cmax) / Time to achieve plasma peak (Tmax): healthy fed subjects
[2] = parameters: method as in ref 16 = [16]; PMID 27493840; doi:10.4172/2155-9880.1000434; 16. Qureshi AA , Khan DA , Silswal N , Saleem S , Qureshi N . Evaluation of pharmacokinetics and bioavailability of higher doses of δ-tocotrienol in healthy fed humans . J Clin Exp Cardiol . 2016; 7
[3] = system: α-Tocopherol Transfer Protein (α-TTP); parameters: method as in PMID 11271854, PMID 8632210
[4] = plasma tocol after single 125 mg δ-tocotrienol dose
[5] = plasma tocol after single 250 mg δ-tocotrienol dose
[6] = plasma tocol after single 500 mg δ-tocotrienol dose
[7] = 0 Hr., single dose 750 mg δ-tocotrienol
[8] = 0 Hr., single dose 1000 mg δ-tocotrienol
[9] = 1 hr., single dose 750 mg δ-tocotrienol
[10] = 1 hr., single dose 1000 mg δ-tocotrienol
[11] = 2 hr., single dose 750 mg δ-tocotrienol
[12] = 2 hr., single dose 1000 mg δ-tocotrienol
[13] = 4 hr., single dose 750 mg δ-tocotrienol
[14] = 4 hr., single dose 1000 mg δ-tocotrienol
[15] = 6 hr., single dose 750 mg δ-tocotrienol
[16] = 6 hr., single dose 1000 mg δ-tocotrienol
[17] = 8 hr., single dose 750 mg δ-tocotrienol
[18] = 8 hr., single dose 1000 mg δ-tocotrienol
[19] = single dose 1000 mg δ-tocotrienol
[20] = plasma tocol after single dose 750 mg δ-tocotrienol
[21] = plasma tocol after single dose 1000 mg δ-tocotrienol

time of appearance in the plasma [1] [h]	Elimination of Half-life time (t1/2) [1, 4]	Elimination rate constant (ke) [1, 4]	Plasma Peak Concentration (Cmax) [1, 4]	Time to achieve plasma peak (Tmax) [1, 4] [h]	Elimination of Half-life time (t1/2) [1, 5]	Elimination rate constant (ke) [1, 5]	Plasma Peak Concentration (Cmax) [1, 5]	Time to achieve plasma peak (Tmax) [1, 5] [h]	Elimination of Half-life time (t1/2) [1, 6]	Elimination rate constant (ke) [1, 6]	Plasma Peak Concentration (Cmax) [1, 6]	Time to achieve plasma peak (Tmax) [1, 6] [h]	plasma tocol level [2, 7] [ng/mL]	plasma tocol level [2, 8] [ng/mL]	plasma tocol level [2, 9] [ng/mL]	plasma tocol level [2, 10] [ng/mL]	plasma tocol level [2, 11] [ng/mL]	plasma tocol level [2, 12] [ng/mL]	plasma tocol level [2, 13] [ng/mL]	Compound	further results
> 2	4.99 ± 069^a h	0.237 ± 0.217^a h-1	1822.00 ± 48.24^a ng/mL	6.00	4.91 ± 0.84^a h	0.084 ± 0.008^a,b h-1	1931.00 ± 92.54^b ng/mL	6.00	3.58 ± 0.67^a h	0.081 ± 0.006^b h-1	2188 ± 147.61^c ng/mL	5.46 ± 0.93	1644 ± 59	1817 ± 80	2080 ± 68	2025 ± 66	2002 ± 91	2115 ± 92	2231 ± 35	Cc1c(C)c2c(c(C)c1O)CC[C@@](C)(CCC[C@H](C)CCC[C@H](C)CCCC(C)C)O2 [α-Tocopherol]	Tmax ([2]; 750 mg and 1000 mg doses of δ-tocotrienol): 6 h; plasma tocol level [2, 14]: 2228 ± 22 ng/mL; plasma tocol level [2, 15]: 2754 ± 84 ng/mL; plasma tocol level [2, 16]: 2915 ± 35 ng/mL; plasma tocol level [2, 17]: 2406 ± 51 ng/mL; plasma tocol level [2, 18]: 2139 ± 61 ng/mL; Total tocols (sum of 0-8 h) [2, 19]: 13239 ng/mL; α-TTP mediated secretion from the liver into the circulatory system (affinity with α-TTP) [3]: 100%
> 2	2.62 ± 0.81^a h	1.234 ± 0.211^a h-1	139.91 ± 11.03^a ng/mL	2.73 ± 0.65	2.89 ± 0.84^a h	0.201 ± 0.050^b h-1	204.91 ± 9.47^b ng/mL	3.00	3.71 ± 0.29^b h	0.214 ± 0.009^b h-1	290.09 ± 9.84^c ng/mL	3.00	241 ± 16	292 ± 39	268 ± 13	653 ± 42	278 ± 7	807 ± 49	293 ± 11	CC(C)=CCC/C(C)=C/CC/C(C)=C/CC[C@]1(C)CCc2c(C)c(O)c(C)c(C)c2O1 [α-Tocotrienol]	plasma tocol level [2, 14]: 1125 ± 35 ng/mL; plasma tocol level [2, 15]: 223 ± 5 ng/mL; plasma tocol level [2, 16]: 375 ± 49 ng/mL; plasma tocol level [2, 17]: 86 ± 16 ng/mL; plasma tocol level [2, 18]: 309 ± 17 ng/mL; Elimination of Half-life time (t1/2) [2, 20]: 2.21 ± 0.18^a h; Elimination rate constant (ke) [2, 20]: 0.315 ± 0.188^a h-1; Elimination of Half-life time (t1/2) [2, 21]: 2.15 ± 0.13^b h; Time to achieve plasma peak (Tmax) [2, 21]: 4.00^a h; Total tocols (sum of 0-8 h) ([2]; single dose 750 mg δ-tocotrienol): 1389 ng/mL; Total tocols (sum of 0-8 h) [2, 19]: 3561 ng/mL; α-TTP mediated secretion from the liver into the circulatory system (affinity with α-TTP) [3]: 12%
